Literature values in patent US11235084B2, “Embolic microspheres” (Varian Medical Systems, Inc., priority 2017, dated 2022).

Compound	reported pKa values at 25° C.
CC(C)(CO)NCC(O)CS(=O)(=O)O (centres unmarked) [AMPSO, N-(1,1-dimethyl-2-hydroxyethyl)-3-amino-2-hydroxypropanesulfonic acid]	9.1
O=S(=O)(O)CCCNC1CCCCC1 [CAPS, 3-(cyclohexylamino)-1-propanesulfonic acid]	10.5
O=S(=O)(O)CCNC1CCCCC1 [CHES, 2-(cyclohexylamino)-1-ethanesulfonic acid]	9.4
CCN1CCOCC1 [N-ethylmorpholine]	7.8
NCC(=O)NCC(=O)O [glycylglycine]	8.3
